One test addresses mPGES-1 in A549 cells (Homo sapiens (Human), UniProt O14684). The test can be described thus: A549 cell-based assay (PGE2 formation, 50% human serum). Conditions: IL-1β 5 ng/ml, 10 nM arachidonic acid, 20-24 h, read-out: mPGES-1 inhibitory effect IC50 in the cell assay. The procedure: Although the enzymatic assay is a high throughput assay the disadvantage is that it uses a recombinant protein which is not in its natural environment. Accordingly a cellular assay was established in which a cell line of human origin (A549) expressing the mPGES-1 protein was used. In addition in order to mimic the situation in humans in which compounds can be bound to plasma proteins 50% human serum is added in the assay.
A549 cells (ATCC: CCL-185) are grown to about 90% confluence in F-12K Nutrient Mixture (Kaighn's Mod. Gibco) containing 10% FBS in a humified incubator at 37° C. and 5% CO2. Cells were detached using Trypsin-EDTA. A549 cells were seeded in a 384-well collagene plate at a density of 7000 cells/well (50 μl) in F-12 medium containing 1% Penicillin-Streptomycin and 50% human serum. The cells were allowed to attach for 3-4 h. After that the cells were incubated for 20-24 h in F-12k medium supplemented with 50% human serum, 1% Penicillin-Streptomycin and containing IL-1β at a final concentration of 5 ng/ml as well as 10 nM arachidonic acid in the presence of a vehicle or a test compound. The total volume is 100 μl.
Concentrations of PGE2 in the cell free medium (10 μl) were measured using a commercially available HTRF kit from Cisbio (as described above). The PGE2 formation in the absence of test compound was taken as 100%.
IC50 values were derived from at 6-8 point titrations using conventional software.
Sequence of mPGES-1 in A549 cells (O14684 whole entry): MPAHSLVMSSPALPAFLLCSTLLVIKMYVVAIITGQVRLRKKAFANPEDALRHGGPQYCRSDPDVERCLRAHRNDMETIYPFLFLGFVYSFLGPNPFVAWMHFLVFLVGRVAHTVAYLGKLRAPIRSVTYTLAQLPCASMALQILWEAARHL
A word on the IC50: it is the concentration at which inhibition is half-maximal. As for `COc1cccc(C(=O)NCc2ccc(Cl)c(Nc3nc4cc(C(=O)N[C@H]5CC[C@H](C(F)(F)F)CC5)c(N5CC6CC6C5)cc4n3C)c2Cl)n1` (stereo partly shown) [Example 204], the concentration for half-maximal inhibition (IC50) turned out to be 49 nM.

In the case of `Cn1c(Nc2c(Cl)ccc(CNC(=O)c3cccc(CO)n3)c2Cl)nc2cc(C(=O)N[C@H]3CC[C@H](C(F)(F)F)CC3)c(N3CC4CC4C3)cc21` (stereo partly shown) [Example 206], the IC50 was found to be 42 nM.

Take `Cn1c(Nc2c(Cl)ccc(CNC(=O)C(C)(C)C)c2F)nc2cc(C(=O)N[C@H]3CC[C@H](C(F)(F)F)CC3)c(N3CCC(C(F)(F)F)C3)cc21` (stereo partly shown) [Example 6]: the IC50 is 4 nM.

With `Cc1noc(C)c1C(=O)NCc1ccc(Cl)c(Nc2nc3cc(C(=O)N[C@H]4CC[C@H](C(F)(F)F)CC4)c(N4CC5CC5C4)cc3n2C)c1Cl` (stereo partly shown) [Example 224], the IC50 came out at 67 nM.

In the case of `Cn1c(Nc2c(Cl)ccc(CNC(=O)c3cncc(O)c3)c2Cl)nc2cc(C(=O)N[C@H]3CC[C@H](C(F)(F)F)CC3)c(N3CC4CC4C3)cc21` (stereo partly shown) [Example 205], the IC50 was > 100 nM.

In the case of `Cc1nc(N)sc1C(=O)NCc1ccc(Cl)c(Nc2nc3cc(C(=O)N[C@H]4CC[C@H](C(F)(F)F)CC4)c(N4CC5CC5C4)cc3n2C)c1Cl` (stereo partly shown) [Example 225], the IC50 is 71 nM.

On to `Cc1n[nH]c(CN(C)c2cc3c(cc2C(=O)NCC(F)(F)C(F)(F)F)nc(Nc2c(Cl)ccc(CNC(=O)C(C)(C)F)c2Cl)n3C)n1` [Example 152], for which the IC50 worked out at 17 nM.

For the compound `CC(C)(O)Cn1c(Nc2c(Cl)ccc(CNC(=O)C(C)(C)C)c2Cl)nc2cc(C(=O)Nc3ccc(OC(F)(F)F)cc3)c(N3CCC(C(F)(F)F)CC3)cc21` [Example 167], the IC50 stood at 2.4 nM.

On to `CC(C)(C)C(=O)NCc1ccc(Cl)c(Nc2nc3cc(C(=O)Nc4ccc(OC(F)(F)F)cc4)c(N4CCOCC4)cc3n2CCC(N)=O)c1Cl` [Example 268], for which the IC50 was 6.5 nM.

`Cn1c(Nc2c(Cl)ccc(CNC(=O)C(C)(C)F)c2Cl)nc2cc(C(=O)NCCC(F)(F)F)c(N3CCC4(CC3)CC4)cc21` [Example 147]: the IC50 came out at 2 nM.

As for `Cn1c(Nc2c(Cl)ccc(CNC(=O)C(C)(C)F)c2Cl)nc2cc(C(=O)N[C@H]3CC[C@H](C(F)(F)F)CC3)c(N3CCC(C(C)(C)O)CC3)cc21` [Example 124], the 50% inhibitory concentration (IC50) was determined as 2 nM.

For the compound `Cn1c(Nc2c(Cl)ccc(CNC(=O)c3csc(N)n3)c2Cl)nc2cc(C(=O)N[C@H]3CC[C@H](C(F)(F)F)CC3)c(N3CC4CC4C3)cc21` (stereo partly shown) [Example 229], the IC50 worked out at 4.6 nM.

For the compound `Cn1c(Nc2c(Cl)ccc(CNC(=O)C(C)(C)C)c2Cl)nc2cc(C(=O)N[C@H]3CC[C@H](C(F)(F)F)CC3)c(N3CCC(F)(F)C3)cc21` [Example 20, N-(trans-4-Trifluoromethyl-cyclohexyl)-2-{2,6-dichloro-3-[(2,2-dimethyl-propionylamino)-methyl]-phenylamino}-6-[3,3-difluoro-pyrrolidinyl]-1-methyl-1H-benzimidazole-5-carboxylic acid amide], the IC50 turned out to be 1 nM.

Consider `Cn1c(Nc2c(Cl)ccc(CNC(=O)C(C)(C)F)c2Cl)nc2cc(C(=O)NCC(F)(F)C(F)(F)F)c(N3CCOCC3)cc21` [Example 153], for which the IC50 is 4.6 nM.

Regarding `COc1cncc(C(=O)NCc2ccc(Cl)c(Nc3nc4cc(C(=O)N[C@H]5CC[C@H](C(F)(F)F)CC5)c(N5CC6CC6C5)cc4n3C)c2Cl)c1` (stereo partly shown) [Example 200], the 50% inhibitory concentration (IC50) was > 100 nM.

Regarding `Cn1c(Nc2c(Cl)ccc(CNC(=O)C(C)(C)F)c2Cl)nc2cc(C(=O)N[C@H]3CC[C@H](C(F)(F)F)CC3)c(N3CCC4(CC3)CC4)cc21` [Example 123], the half-maximal inhibitory concentration (IC50) came to 1 nM.

`Cn1c(Nc2c(Cl)ccc(CNC(=O)C(C)(C)C)c2Cl)nc2cc(C(=O)Nc3cc(C(C)(C)C)no3)c(N3CCC(C(F)(F)F)CC3)cc21` [Example 157]: the half-inhibitory concentration (IC50) worked out at 1 nM.

`CNc1cc(C(=O)NCc2ccc(Cl)c(Nc3nc4cc(C(=O)N[C@H]5CC[C@H](C(F)(F)F)CC5)c(N5CC6CC6C5)cc4n3C)c2Cl)ccn1` (stereo partly shown) [Example 203]: the IC50 turned out to be 46 nM.

Consider `Cc1nc(C)c(C(=O)NCc2ccc(Cl)c(Nc3nc4cc(C(=O)N[C@H]5CC[C@H](C(F)(F)F)CC5)c(N5CC6CC6C5)cc4n3C)c2Cl)s1` (stereo partly shown) [Example 227], for which the IC50 turned out to be 43 nM.

As to `Cc1cc(C)nc(C(=O)NCc2ccc(Cl)c(Nc3nc4cc(C(=O)N[C@H]5CC[C@H](C(F)(F)F)CC5)c(N5CC6CC6C5)cc4n3C)c2Cl)c1` (stereo partly shown) [Example 202], the IC50 amounted to 57 nM.

In the case of `COc1cncc(C(=O)NCc2ccc(Cl)c(Nc3nc4cc(C(=O)N[C@H]5CC[C@H](C(F)(F)F)CC5)c(N5CC6CC6C5)cc4n3C)c2Cl)n1` (stereo partly shown) [Example 213], the IC50 amounted to 41 nM.

For `Cn1c(Nc2c(Cl)ccc(CNC(=O)c3cc(C#N)ccn3)c2Cl)nc2cc(C(=O)N[C@H]3CC[C@H](C(F)(F)F)CC3)c(N3CC4CC4C3)cc21` (stereo partly shown) [Example 209], the IC50 is 6.5 nM.

Regarding `Cn1c(Nc2c(Cl)ccc(CNC(=O)C(C)(C)F)c2Cl)nc2cc(C(=O)N[C@H]3CC[C@H](C(F)(F)F)CC3)c(N3CC4CC4C3)cc21` (stereo partly shown) [Example 191], the IC50 was 2 nM.

On to `Cc1ccc(C(=O)NCc2ccc(Cl)c(Nc3nc4cc(C(=O)N[C@H]5CC[C@H](C(F)(F)F)CC5)c(N5CC6CC6C5)cc4n3C)c2Cl)nc1C` (stereo partly shown) [Example 199], for which the IC50 is 8 nM.

With `Cn1c(Nc2c(Cl)ccc(CNC(=O)C(C)(C)F)c2Cl)nc2cc(C(=O)Nc3ccc(OC(F)(F)F)cc3)c(N3CCOCC3)cc21` [Example 142], the IC50 turned out to be 2 nM.

Turning to `Cn1c(Nc2c(Cl)ccc(CNC(=O)C(C)(C)CO)c2Cl)nc2cc(C(=O)N[C@H]3CC[C@H](C(F)(F)F)CC3)c(N3CC4CC4C3)cc21` (stereo partly shown) [Example 194], the IC50 stood at 2.1 nM.

`Cc1noc(N)c1C(=O)NCc1ccc(Cl)c(Nc2nc3cc(C(=O)N[C@H]4CC[C@H](C(F)(F)F)CC4)c(N4CC5CC5C4)cc3n2C)c1Cl` (stereo partly shown) [Example 222]: the IC50 amounted to 100 nM.

In the case of `Cn1ccnc1C(=O)NCc1ccc(Cl)c(Nc2nc3cc(C(=O)N[C@H]4CC[C@H](C(F)(F)F)CC4)c(N4CC5CC5C4)cc3n2C)c1Cl` (stereo partly shown) [Example 216], the IC50 was 27 nM.

`CN(Cc1nnc[nH]1)c1cc2c(cc1C(=O)N[C@H]1CC[C@H](C(F)(F)F)CC1)nc(Nc1c(Cl)ccc(CNC(=O)C(C)(C)C)c1Cl)n2C` [Example 114]: the IC50 amounted to 3.5 nM.

In the case of `Cn1c(Nc2c(Cl)ccc(CNC(=O)c3c(F)cncc3F)c2Cl)nc2cc(C(=O)N[C@H]3CC[C@H](C(F)(F)F)CC3)c(N3CC4CC4C3)cc21` (stereo partly shown) [Example 201], the IC50 worked out at 6 nM.

Consider `CC(C)(C)C(=O)NCc1ccc(Cl)c(Nc2nc3cc(C(=O)N[C@H]4CC[C@H](C(F)(F)F)CC4)c(N4CCC(C(F)(F)F)CC4)cc3n2CCC(N)=O)c1Cl` [Example 171], for which the IC50 stood at 6 nM.

In the case of `Cn1c(Nc2c(Cl)ccc(CNC(=O)c3cc(O)[nH]n3)c2Cl)nc2cc(C(=O)N[C@H]3CC[C@H](C(F)(F)F)CC3)c(N3CC4CC4C3)cc21` (stereo partly shown) [Example 218], the IC50 was 98 nM.

The same test, now with this note: Table C comparison of selected benzimidazoles, read-out: Cell IC50.
`Cn1c(Nc2c(Cl)ccc(CNC(=O)C(C)(C)C)c2Cl)nc2cc(C(=O)N[C@H]3CC[C@H](C(F)(F)F)CC3)c(N3CCC(F)(F)C3)cc21` [Example 20, N-(trans-4-Trifluoromethyl-cyclohexyl)-2-{2,6-dichloro-3-[(2,2-dimethyl-propionylamino)-methyl]-phenylamino}-6-[3,3-difluoro-pyrrolidinyl]-1-methyl-1H-benzimidazole-5-carboxylic acid amide]: the IC50 was 1 nM.

Still in this test, the particulars now being: mPGES-1 inhibitory effect IC50 in the cell assay, IL-1β 5 ng/ml, 10 nM arachidonic acid, 20-24 h.
As for `CC(C)(C)C(=O)NCc1ccc(Cl)c(Nc2nc3cc(C(=O)N[C@H]4CC[C@H](C(F)(F)F)CC4)c(N4CCOCC4)cc3n2CC(F)F)c1Cl` [Example 71, N-(trans-4-Trifluoromethyl-cyclohexyl)-2-{2,6-dichloro-3-[(2,2-dimethyl-propionylamino)-methyl]-phenylamino}-6-[morpholin-1-yl]-(2,2-difluoroethyl)-benzimidazole-5-carboxylic acid amide], the IC50 was < 1 nM.

The record behind these values is patent US8674113B2, “Compounds” (Boehringer Ingelheim International GmbH, priority 2010, dated 2014).
